“And” between values parts separate entries of the source, which are not always exact repeats. Equal values may be shown once.
Tests used:
Assay in all cases: biochemical
Format in all cases: binding
SfurOBP1 = SfurOBP1 (Sogatella furcifera, UniProt V5T8N5); conditions: for Fluorescence competitive binding assay, fluorescence intensity: OBP1, three replicate columns
Description: (§1) Thirty-six rice odorants ([He et al., 2014]; [Wang et al., 2017]) and 1-N-phenyl-naphthylamine (1-NPN) were purchased from Sigma-Aldrich (St Louis, MO, USA). These odorants and 1-NPN were dissolved in high-performance liquid chromatography (HPLC) purify grade methanol for 1.0 mM as work solution.
(§2) Fluorescence competitive binding assays were performed on Tecan Spark 10M (Tecan Group Ltd., Männedorf, Switzerland) with the F96 Black ELIAS Plate (Sangon) ([Khuhro et al., 2017]; [Liu et al., 2017]). The solutions were excited at 337 nm and emission spectra were recorded between 390 and 490 nm. First, to test the binding constants of 1-NPN to the SfurOBPs, a 2.0 µM solution of protein in 50 mM Tris-HCl (pH = 7.4) was titrated with 1 mM 1-NPN to achieve virous concentrations. Next, the competitive binding of each odorant was measured using the 1-NPN as fluorescent reporter and odorant as competitor. The concentrations of protein and 1-NPN were both 2.0 µM, the odorant added after protein and 1-NPN added into the well of ELIAS Plate for 2 min. The final concentrations of each competitor were 2, 4, 6, 8, 10, 12, 14, 16, 18 and 20 µM. After 2 min of odorant added, the fluorescence intensity was measured and recorded. The volume of mixed solution in each well was maintained at 250 µL. Each interaction was performed in triplicates.
(§3) GraphPad Prism 7.0 software (GraphPad Software, Inc., La Jolla, CA, USA) was used to calculated and generated the binding constants (K1−NPN) of 1-NPN to SfurOBPs and relative Scatchard plots ([Ban et al., 2003]; [Li et al., 2016]). Dissociation constant (Ki) of each odorant to SfurOBP was computed from the corresponding IC50 value (the half maximal inhibitory concentration), using the following equation: Ki=[IC50]/(1 + [1-NPN]/K1−NPN), where [1-NPN] is the free concentration of 1-NPN and K1−NPN is the dissociation constant of the complex protein/1-NPN.

SfurOBP3 = SfurOBP3 (Sogatella furcifera, UniProt V5T818); conditions: for Fluorescence competitive binding assay, fluorescence intensity: OBP3, three replicate columns
SfurOBP3, sequence (V5T818 entry or part of it): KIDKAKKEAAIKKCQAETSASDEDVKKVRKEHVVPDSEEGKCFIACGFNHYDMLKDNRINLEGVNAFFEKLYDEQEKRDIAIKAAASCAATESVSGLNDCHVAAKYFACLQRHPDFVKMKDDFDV
Description: as §1, §2, §3

SfurOBP2 = SfurOBP2 (Sogatella furcifera, UniProt V5T759)
SfurOBP2, sequence (V5T759 entry or part of it): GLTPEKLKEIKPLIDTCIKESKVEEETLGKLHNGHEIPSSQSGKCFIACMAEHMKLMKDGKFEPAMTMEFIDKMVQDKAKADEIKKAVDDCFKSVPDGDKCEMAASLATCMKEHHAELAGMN
Description: as §1, §2, §3

SfurOBP11 = SfurOBP11 (Sogatella furcifera, UniProt V5T6E3)
SfurOBP11, sequence (V5T6E3 entry or part of it): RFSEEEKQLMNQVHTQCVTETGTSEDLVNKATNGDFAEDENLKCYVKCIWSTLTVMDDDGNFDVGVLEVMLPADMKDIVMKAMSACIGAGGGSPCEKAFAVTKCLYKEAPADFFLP
Description: as §1, §2, §3

SfurOBP1, sequence (V5T8N5 entry or part of it): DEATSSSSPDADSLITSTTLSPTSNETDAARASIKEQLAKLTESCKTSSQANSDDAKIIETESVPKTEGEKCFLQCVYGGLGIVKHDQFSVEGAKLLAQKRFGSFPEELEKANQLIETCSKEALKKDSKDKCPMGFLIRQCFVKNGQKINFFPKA

Cc1cc(C(C)(C)C)c(O)c(C(C)(C)C)c1 [2,6-di-tert-butyl-4-methylphenol]
IC50 (SfurOBP1; SfurOBP1, protein and 1-NPN both 2.0 µM, competitor 2-20 µM, read-out: IC50): > 20 µM | IC50 (SfurOBP3; SfurOBP3, protein and 1-NPN both 2.0 µM, competitor 2-20 µM, read-out: IC50): > 20 µM | IC50 (SfurOBP2; SfurOBP2, protein and 1-NPN both 2.0 µM, competitor 2-20 µM, read-out: IC50): > 20 µM | IC50 (SfurOBP11; SfurOBP11, protein and 1-NPN both 2.0 µM, competitor 2-20 µM, read-out: IC50): 18 µM

Cc1cc(C(C)(C)C)c(O)c(C(C)(C)C)c1 [BHT(2,6-di-tert-butyl-4-methylphenol)]
Fluorescence competitive binding assay, fluorescence intensity (SfurOBP1; ligand concentration 2 (μM)): 6030 and 6058 and 6096 | Fluorescence competitive binding assay, fluorescence intensity (SfurOBP1; ligand concentration 4 (μM)): 6092 and 6318 and 6150 | Fluorescence competitive binding assay, fluorescence intensity (SfurOBP1; ligand concentration 6 (μM)): 6520 and 6547 and 6496 | Fluorescence competitive binding assay, fluorescence intensity (SfurOBP1; ligand concentration 8 (μM)): 6548 and 6679 and 6600 | Fluorescence competitive binding assay, fluorescence intensity (SfurOBP1; ligand concentration 10 (μM)): 6739 and 6709 and 6666 | Fluorescence competitive binding assay, fluorescence intensity (SfurOBP1; ligand concentration 12 (μM)): 6775 and 6778 and 6802 | Fluorescence competitive binding assay, fluorescence intensity (SfurOBP1; ligand concentration 14 (μM)): 6847 and 6906 and 6978 | Fluorescence competitive binding assay, fluorescence intensity (SfurOBP1; ligand concentration 16 (μM)): 6943 and 7135 and 6900 | Fluorescence competitive binding assay, fluorescence intensity (SfurOBP1; ligand concentration 18 (μM)): 7439 and 7058 and 7176 | Fluorescence competitive binding assay, fluorescence intensity (SfurOBP1; ligand concentration 20 (μM)): 7203 and 7412 and 7729 | Fluorescence competitive binding assay, fluorescence intensity (SfurOBP3; ligand concentration 2): 62922 and 62019 and 61313 | Fluorescence competitive binding assay, fluorescence intensity (SfurOBP3; ligand concentration 4): 80496 and 109930 and 48944 | Fluorescence competitive binding assay, fluorescence intensity (SfurOBP3; ligand concentration 6): 58503 and 58107 and 50633 | Fluorescence competitive binding assay, fluorescence intensity (SfurOBP3; ligand concentration 8): 41822 and 72799 and 53759 | Fluorescence competitive binding assay, fluorescence intensity (SfurOBP3; ligand concentration 10): 69788 and 72654 and 85946 | Fluorescence competitive binding assay, fluorescence intensity (SfurOBP3; ligand concentration 12): 60000 and 90914 and 74114 | Fluorescence competitive binding assay, fluorescence intensity (SfurOBP3; ligand concentration 14): 74285 and 75475 and 71382 | Fluorescence competitive binding assay, fluorescence intensity (SfurOBP3; ligand concentration 16): 52587 and 87313 and 65294 | Fluorescence competitive binding assay, fluorescence intensity (SfurOBP3; ligand concentration 18): 52719 and 70169 and 103842 | Fluorescence competitive binding assay, fluorescence intensity (SfurOBP3; ligand concentration 20): 122349 and 93664 and 80933 | Fluorescence competitive binding assay, OBP2 (raw fluorescence reading) (SfurOBP2; ligand concentration 2 (unit not given), replicate column 1 of 3): 17266 | Fluorescence competitive binding assay, OBP2 (raw fluorescence reading) (SfurOBP2; ligand concentration 2 (unit not given), replicate column 2 of 3): 17491 | Fluorescence competitive binding assay, OBP2 (raw fluorescence reading) (SfurOBP2; ligand concentration 2 (unit not given), replicate column 3 of 3): 17183 | Fluorescence competitive binding assay, OBP2 (raw fluorescence reading) (SfurOBP2; ligand concentration 4 (unit not given), replicate column 1 of 3): 14970 | Fluorescence competitive binding assay, OBP2 (raw fluorescence reading) (SfurOBP2; ligand concentration 4 (unit not given), replicate column 2 of 3): 16711 | Fluorescence competitive binding assay, OBP2 (raw fluorescence reading) (SfurOBP2; ligand concentration 4 (unit not given), replicate column 3 of 3): 16317 | Fluorescence competitive binding assay, OBP2 (raw fluorescence reading) (SfurOBP2; ligand concentration 6 (unit not given), replicate column 1 of 3): 15662 | Fluorescence competitive binding assay, OBP2 (raw fluorescence reading) (SfurOBP2; ligand concentration 6 (unit not given), replicate column 2 of 3): 16983 | Fluorescence competitive binding assay, OBP2 (raw fluorescence reading) (SfurOBP2; ligand concentration 6 (unit not given), replicate column 3 of 3): 15070 | Fluorescence competitive binding assay, OBP2 (raw fluorescence reading) (SfurOBP2; ligand concentration 8 (unit not given), replicate column 1 of 3): 15947 | Fluorescence competitive binding assay, OBP2 (raw fluorescence reading) (SfurOBP2; ligand concentration 8 (unit not given), replicate column 2 of 3): 15853 | Fluorescence competitive binding assay, OBP2 (raw fluorescence reading) (SfurOBP2; ligand concentration 8 (unit not given), replicate column 3 of 3): 15572 | Fluorescence competitive binding assay, OBP2 (raw fluorescence reading) (SfurOBP2; ligand concentration 10 (unit not given), replicate column 1 of 3): 14398 | Fluorescence competitive binding assay, OBP2 (raw fluorescence reading) (SfurOBP2; ligand concentration 10 (unit not given), replicate column 2 of 3): 14630 | Fluorescence competitive binding assay, OBP2 (raw fluorescence reading) (SfurOBP2; ligand concentration 10 (unit not given), replicate column 3 of 3): 15652 | Fluorescence competitive binding assay, OBP2 (raw fluorescence reading) (SfurOBP2; ligand concentration 12 (unit not given), replicate column 1 of 3): 14856 | Fluorescence competitive binding assay, OBP2 (raw fluorescence reading) (SfurOBP2; ligand concentration 12 (unit not given), replicate column 2 of 3): 14795 | Fluorescence competitive binding assay, OBP2 (raw fluorescence reading) (SfurOBP2; ligand concentration 12 (unit not given), replicate column 3 of 3): 14083 | Fluorescence competitive binding assay, OBP2 (raw fluorescence reading) (SfurOBP2; ligand concentration 14 (unit not given), replicate column 1 of 3): 12632 | Fluorescence competitive binding assay, OBP2 (raw fluorescence reading) (SfurOBP2; ligand concentration 14 (unit not given), replicate column 2 of 3): 13317 | Fluorescence competitive binding assay, OBP2 (raw fluorescence reading) (SfurOBP2; ligand concentration 14 (unit not given), replicate column 3 of 3): 14001 | Fluorescence competitive binding assay, OBP2 (raw fluorescence reading) (SfurOBP2; ligand concentration 16 (unit not given), replicate column 1 of 3): 12208 | Fluorescence competitive binding assay, OBP2 (raw fluorescence reading) (SfurOBP2; ligand concentration 16 (unit not given), replicate column 2 of 3): 12493 | Fluorescence competitive binding assay, OBP2 (raw fluorescence reading) (SfurOBP2; ligand concentration 16 (unit not given), replicate column 3 of 3): 12411 | Fluorescence competitive binding assay, OBP2 (raw fluorescence reading) (SfurOBP2; ligand concentration 18 (unit not given), replicate column 1 of 3): 12799 | Fluorescence competitive binding assay, OBP2 (raw fluorescence reading) (SfurOBP2; ligand concentration 18 (unit not given), replicate column 2 of 3): 12350 | Fluorescence competitive binding assay, OBP2 (raw fluorescence reading) (SfurOBP2; ligand concentration 18 (unit not given), replicate column 3 of 3): 11202 | Fluorescence competitive binding assay, OBP2 (raw fluorescence reading) (SfurOBP2; ligand concentration 20 (unit not given), replicate column 1 of 3): 12923 | Fluorescence competitive binding assay, OBP2 (raw fluorescence reading) (SfurOBP2; ligand concentration 20 (unit not given), replicate column 2 of 3): 12557 | Fluorescence competitive binding assay, OBP2 (raw fluorescence reading) (SfurOBP2; ligand concentration 20 (unit not given), replicate column 3 of 3): 10378 | Fluorescence intensity, fluorescence competitive binding assay, OBP11 (SfurOBP11; ligand concentration 2, replicate 1): 23825 | Fluorescence intensity, fluorescence competitive binding assay, OBP11 (SfurOBP11; ligand concentration 2, replicate 2): 22642 | Fluorescence intensity, fluorescence competitive binding assay, OBP11 (SfurOBP11; ligand concentration 2, replicate 3): 21527 | Fluorescence intensity, fluorescence competitive binding assay, OBP11 (SfurOBP11; ligand concentration 4, replicate 1): 20143 | Fluorescence intensity, fluorescence competitive binding assay, OBP11 (SfurOBP11; ligand concentration 4, replicate 2): 21258 | Fluorescence intensity, fluorescence competitive binding assay, OBP11 (SfurOBP11; ligand concentration 4, replicate 3): 22100 | Fluorescence intensity, fluorescence competitive binding assay, OBP11 (SfurOBP11; ligand concentration 6, replicate 1): 20464 | Fluorescence intensity, fluorescence competitive binding assay, OBP11 (SfurOBP11; ligand concentration 6, replicate 2): 20607 | Fluorescence intensity, fluorescence competitive binding assay, OBP11 (SfurOBP11; ligand concentration 6, replicate 3): 21862 | Fluorescence intensity, fluorescence competitive binding assay, OBP11 (SfurOBP11; ligand concentration 8, replicate 1): 19852 | Fluorescence intensity, fluorescence competitive binding assay, OBP11 (SfurOBP11; ligand concentration 8, replicate 2): 19956 | Fluorescence intensity, fluorescence competitive binding assay, OBP11 (SfurOBP11; ligand concentration 8, replicate 3): 20060 | Fluorescence intensity, fluorescence competitive binding assay, OBP11 (SfurOBP11; ligand concentration 10, replicate 1): 19539 | Fluorescence intensity, fluorescence competitive binding assay, OBP11 (SfurOBP11; ligand concentration 10, replicate 2): 18542 | Fluorescence intensity, fluorescence competitive binding assay, OBP11 (SfurOBP11; ligand concentration 10, replicate 3): 20536 | Fluorescence intensity, fluorescence competitive binding assay, OBP11 (SfurOBP11; ligand concentration 12, replicate 1): 18948 | Fluorescence intensity, fluorescence competitive binding assay, OBP11 (SfurOBP11; ligand concentration 12, replicate 2): 19227 | Fluorescence intensity, fluorescence competitive binding assay, OBP11 (SfurOBP11; ligand concentration 12, replicate 3): 18669 | Fluorescence intensity, fluorescence competitive binding assay, OBP11 (SfurOBP11; ligand concentration 14, replicate 1): 16147 | Fluorescence intensity, fluorescence competitive binding assay, OBP11 (SfurOBP11; ligand concentration 14, replicate 2): 16112 | Fluorescence intensity, fluorescence competitive binding assay, OBP11 (SfurOBP11; ligand concentration 14, replicate 3): 15881 | Fluorescence intensity, fluorescence competitive binding assay, OBP11 (SfurOBP11; ligand concentration 16, replicate 1): 16019 | Fluorescence intensity, fluorescence competitive binding assay, OBP11 (SfurOBP11; ligand concentration 16, replicate 2): 15985 | Fluorescence intensity, fluorescence competitive binding assay, OBP11 (SfurOBP11; ligand concentration 16, replicate 3): 16022 | Fluorescence intensity, fluorescence competitive binding assay, OBP11 (SfurOBP11; ligand concentration 18, replicate 1): 16028 | Fluorescence intensity, fluorescence competitive binding assay, OBP11 (SfurOBP11; ligand concentration 18, replicate 2): 15902 | Fluorescence intensity, fluorescence competitive binding assay, OBP11 (SfurOBP11; ligand concentration 18, replicate 3): 15995 | Fluorescence intensity, fluorescence competitive binding assay, OBP11 (SfurOBP11; ligand concentration 20, replicate 1): 15978 | Fluorescence intensity, fluorescence competitive binding assay, OBP11 (SfurOBP11; ligand concentration 20, replicate 2): 15860 | Fluorescence intensity, fluorescence competitive binding assay, OBP11 (SfurOBP11; ligand concentration 20, replicate 3): 15984

From PMC6409085, “Three odorant-binding proteins are involved in the behavioral response of Sogatella furcifera to rice plant volatiles” (PeerJ, 2019)
